From patent publication US8658697B2 (priority 2004, dated 2014) come the findings set out here.

Holding throughout (assay): microbe, parasite or virus in culture
One experiment deals with VSV pseudotyped virus. Type of experiment: cell-based. The conditions noted are these: Vesicular stomatitis virus, read-out: EC50 vs. pseudotyped virus (μM) VSV.
Experiment [1] deals with Machupo pseudotyped virus. The experiment is classed as cell-based. The note with it: Mammarenavirus machupoense, read-out: EC50 vs. pseudotyped virus (μM) Machupo.
Another experiment has as its system Tacaribe virus. Type of experiment: cell-based. The note with it: Mammarenavirus tacaribeense, Vero, 168 h, read-out: Tacaribe EC50.
For another experiment, the system named is Candid-1 vaccine virus. The experiment is classed as cell-based, Junin virus (vaccine strain). The note with it: Mammarenavirus juninense, Vero, 168 h, read-out: Candid 1 EC50.
In experiment [2] the test system is Pichinde pseudotyped virus. The experiment is classed as cell-based. The conditions noted are these: read-out: EC50 vs. pseudotyped virus (μM) Pichinde.
Experiment [3] concerns Guanarito pseudotyped virus. The experiment is classed as cell-based. The conditions noted are these: Mammarenavirus guanaritoense, read-out: EC50 vs. pseudotyped virus (μM) Guanarito.
Experiment [4] has as its system Tacaribe pseudotyped virus. The experiment is classed as cell-based. The note with it: Mammarenavirus tacaribeense, read-out: EC50 vs. pseudotyped virus (μM) Tacaribe.
In experiment [5] the test system is Tacaribe virus (TRVL 11573). Type of experiment: cell-based. The conditions noted are these: Mammarenavirus tacaribeense, Vero, read-out: Tacaribe EC50.

Usually EC50 stands for the concentration needed to bring the measured effect to its halfway point. On to `CCC(NC(=O)NNC(=O)c1ccc(C)cc1)(C(F)(F)F)C(F)(F)F` [Example 104, N-[1,1-bis(trifluoromethyl)propyl]-2-(4-methylbenzoyl)hydrazinecarboxamide], for which the EC50 in the experiment with VSV pseudotyped virus was more than 5 µM; in experiment [1] it was less than 0.5 µM; with Tacaribe virus, 500 to 1000 nM; with Candid-1 vaccine virus, more than 5000 nM; in experiment [2], 1 to 5 µM; in experiment [3], less than 0.5 µM. The EC50 in experiment [4] was less than 0.5 µM.

With `CCC(NC(=O)NNC(=O)c1cc(C)cc(C)c1)(C(F)(F)F)C(F)(F)F` [Example 110, N-[1,1-bis(trifluoromethyl)propyl]-2-(3,5-dimethylbenzoyl)hydrazinecarboxamide], the EC50 in the experiment with VSV pseudotyped virus was more than 5 µM; in experiment [1] it was less than 0.5 µM; with Tacaribe virus, less than 500 nM; with Candid-1 vaccine virus, 1000 to 5000 nM; in experiment [2] it was 1 to 5 µM; in experiment [3] it was 0.5 to 1 µM. The concentration giving a half-maximal response (EC50) in experiment [4] was less than 0.5 µM.

With `CCC(NC(=O)NNC(=O)c1cc(Cl)ccc1OC)(C(F)(F)F)C(F)(F)F` [Example 112, N-[1,1-bis(trifluoromethyl)propyl]-2-(5-chloro-2-methoxybenzoyl)hydrazinecarboxamide], the EC50 was more than 5 µM in the experiment on VSV pseudotyped virus; less than 0.5 µM in experiment [1]; less than 500 nM in the experiment on Tacaribe virus; more than 5000 nM in the experiment on Candid-1 vaccine virus; 1 to 5 µM in experiment [2]; less than 0.5 µM in experiment [3]. The half-maximal effective concentration (EC50) in experiment [4] was less than 0.5 µM.

On to `CCC(NC(=O)NNC(=O)c1c(C)cc(C)cc1C)(C(F)(F)F)C(F)(F)F` [Example 111, N-[1,1-bis(trifluoromethyl)propyl]-2-(mesitylcarbonyl)hydrazinecarboxamide], for which the EC50 in the experiment with VSV pseudotyped virus is more than 5 µM; in experiment [1], less than 0.5 µM; in the experiment with Tacaribe virus, 1000 to 5000 nM; in experiment [2], 1 to 5 µM; in experiment [3], 0.5 to 1 µM; in experiment [4], less than 0.5 µM.

As to `CCC(NC(=O)NNC(=O)c1cc(OCC(F)(F)F)ccc1OCC(F)(F)F)(C(F)(F)F)C(F)(F)F` [Example 99, 2-[2,5-bis(2,2,2-trifluoroethoxy)benzoyl]-N-[1,1-bis(trifluoromethyl)propyl]hydrazinecarboxamide], the EC50 in the experiment with VSV pseudotyped virus was more than 5 µM; in experiment [1], 0.5 to 1 µM; in the experiment with Tacaribe virus, less than 500 nM; with Candid-1 vaccine virus, more than 5000 nM; in experiment [2], 1 to 5 µM; in experiment [3], 1 to 5 µM. Further, in experiment [4], the 50% effective concentration (EC50) is less than 0.5 µM.

Consider `CCC(NC(=O)NNC(=O)c1ccc2ccccc2c1)(C(F)(F)F)C(F)(F)F` [Example 105, N-[1,1-bis(trifluoromethyl)propyl]-2-(2-naphthoyl)hydrazinecarboxamide], for which the EC50 in the experiment on VSV pseudotyped virus is more than 5 µM; in experiment [1], less than 0.5 µM; with Tacaribe virus, less than 500 nM; with Candid-1 vaccine virus, 1000 to 5000 nM; in experiment [2] it was 1 to 5 µM; in experiment [3] it was less than 0.5 µM. Further, in experiment [4], the concentration giving a half-maximal response (EC50) is less than 0.5 µM.

As to `CCC(NC(=O)NNC(=O)c1cc(OC)ccc1OC)(C(F)(F)F)C(F)(F)F` [Example 106, N-[1,1-bis(trifluoromethyl)propyl]-2-(2,5-dimethoxybenzoyl)hydrazinecarboxamide], the EC50 was more than 5 µM with VSV pseudotyped virus; less than 0.5 µM in experiment [1]; less than 500 nM with Tacaribe virus; 1000 to 5000 nM in the experiment on Candid-1 vaccine virus; more than 5 µM in experiment [2]; less than 0.5 µM in experiment [3]. Moreover, in experiment [4], the EC50 was less than 0.5 µM.

With `CCC(NC(=O)NNC(=O)c1ccc(C(C)(C)C)cc1)(C(F)(F)F)C(F)(F)F` [Example 100, N-[1,1-bis(trifluoromethyl)propyl]-2-(4-tert-butylbenzoyl)hydrazinecarboxamide], the EC50 in the experiment with VSV pseudotyped virus is more than 5 µM; in experiment [1] it was less than 0.5 µM; in the experiment with Tacaribe virus, less than 500 nM; in the experiment with Candid-1 vaccine virus, 1000 to 5000 nM; in experiment [2] it was 1 to 5 µM; in experiment [3], less than 0.5 µM. Besides, the EC50 in experiment [4] is less than 0.5 µM.

`CCC(NC(=O)NNC(=O)c1ccc(Br)cc1)(C(F)(F)F)C(F)(F)F` [Example 108, N-[1,1-bis(trifluoromethyl)propyl]-2-(4-bromobenzoyl)hydrazinecarboxamide]: the EC50 with VSV pseudotyped virus was more than 5 µM; in experiment [1] it was less than 0.5 µM; in the experiment with Tacaribe virus, 500 to 1000 nM; in the experiment with Candid-1 vaccine virus, 1000 to 5000 nM; in experiment [2], 1 to 5 µM; in experiment [3], less than 0.5 µM. Further, the EC50 in experiment [4] was less than 0.5 µM.

As to `CCC(NC(=O)NNC(=O)c1ccc(-c2ccccc2)cc1)(C(F)(F)F)C(F)(F)F` [Example 101, 2-(1,1′-biphenyl-4-ylcarbonyl)-N-[1,1-bis(trifluoromethyl)propyl] hydrazinecarboxamide], the EC50 with VSV pseudotyped virus is more than 5 µM; in experiment [1], less than 0.5 µM; with Tacaribe virus, less than 500 nM; in the experiment on Candid-1 vaccine virus, 1000 to 5000 nM; in experiment [2], 0.5 to 1 µM; in experiment [3] it was less than 0.5 µM. Moreover, the EC50 in experiment [4] was less than 0.5 µM.

For `CCC(NC(=O)NNC(=O)c1cccc2ccccc12)(C(F)(F)F)C(F)(F)F` [Example 102, N-[1,1-bis(trifluoromethyl)propyl]-2-(1-naphthoyl)hydrazinecarboxamide], the EC50 in the experiment with VSV pseudotyped virus was more than 5 µM; in experiment [1], less than 0.5 µM; with Tacaribe virus, less than 500 nM; in the experiment on Candid-1 vaccine virus it was more than 5000 nM; in experiment [2], 1 to 5 µM; in experiment [3] it was 1 to 5 µM. Besides, the EC50 in experiment [4] is less than 0.5 µM.

Take `CC(NC(=O)NNS(C)(=O)=O)(C(F)(F)F)C(F)(F)F` [Example 50, N-2-(1,1,1,3,3,3-Hexafluoro-2-methylpropyl)-2-[methylsulfonyl]hydrazine-1-carboxamide]: the EC50 in experiment [5] was more than 5000 nM.

`Cn1cnc(S(=O)(=O)NNC(=O)NC(C)(C(F)(F)F)C(F)(F)F)c1` [Example 49, N-2-(1,1,1,3,3,3-Hexafluoro-2-methylpropyl)-2-[(1-methylimidazol-4-yl)sulfonyl]hydrazine-1-carboxamide]: the half-maximal effective concentration (EC50) in experiment [5] was more than 5000 nM.

For `Cc1cccc(S(=O)(=O)NNC(=O)NC(C)(C(F)(F)F)C(F)(F)F)c1` [Example 22, N-2-(1,1,1,3,3,3-Hexafluoro-2-methylpropyl)-2-[(3-methylphenyl)sulfonyl]hydrazine-1-carboxamide], the EC50 in experiment [5] is 500 to 1000 nM.

Take `CC(NC(=O)NNS(=O)(=O)c1c(C(F)(F)F)cccc1C(F)(F)F)(C(F)(F)F)C(F)(F)F` [Example 45, N-2-(1,1,1,3,3,3-Hexafluoro-2-methylpropyl)-2-[(2,6-ditrifluoromethylphenyl)sulfonyl] hydrazine-1-carboxamide]: the EC50 in experiment [5] lay in the range of 1000 to 5000 nM.

Consider `COc1cccc(NC(=O)NC(C)(C(F)(F)F)C(F)(F)F)c1` [Example 77, 1-(3-Methoxyphenyl)-3-(2,2,2-trifluoro-1-methyl-1-trifluoromethylethyl)-urea], for which the EC50 in experiment [5] was 1000 to 5000 nM.

For `CC(NC(=O)Nc1ccc(C#N)cc1)(C(F)(F)F)C(F)(F)F` [Example 83, 1-(4-Cyanophenyl)-3-(2,2,2-trifluoro-1-methyl-1-trifluoromethylethyl)-urea], in experiment [5], the 50% effective concentration (EC50) fell in the range of 1000 to 5000 nM.

With `CC(NC(=O)Nc1ccccc1F)(C(F)(F)F)C(F)(F)F` [Example 72, 1-(2-fluorophenyl)-3-(2,2,2-trifluoro-1-methyl-1-trifluoromethylethyl)-urea], the EC50 in experiment [5] lay in the range of 1000 to 5000 nM.

As to `CC(NC(=O)N1CCC(c2ccccc2)CC1)(C(F)(F)F)C(F)(F)F` [Example 60, 4-Phenylpiperidin-1-yl-1-(2,2,2-trifluoro-1-methyl-1-trifluoromethylethyl)-carboxamide], in experiment [5], the concentration for a half-maximal effect (EC50) was 1000 to 5000 nM.

Take `CC(NC(=O)NNS(=O)(=O)c1ccc(Cl)c(F)c1)(C(F)(F)F)C(F)(F)F` [Example 14, N-2-(1,1,1,3,3,3-Hexafluoro-2-methylpropyl)-2-[(3-fluoro-4-chloro-phenyl)sulfonyl]hydrazine-1-carboxamide]: in experiment [5], the EC50 was in the range of 500 to 1000 nM.

On to `CC(NC(=O)Nc1cccc(OC(F)(F)F)c1)(C(F)(F)F)C(F)(F)F` [Example 68, 1-(3-Trifluoromethoxyphenyl)-3-(2,2,2-trifluoro-1-methyl-1-trifluoromethylethyl)-urea], for which, in experiment [5], the EC50 lay in the range of 1000 to 5000 nM.

Consider `CC(NC(=O)NNS(=O)(=O)c1ccc(F)c(F)c1)(C(F)(F)F)C(F)(F)F` [Example 37, N-2-(1,1,1,3,3,3-Hexafluoro-2-methylpropyl)-2-[(3,4-difluorophenyl)sulfonyl]hydrazine-1-carboxamide], for which the concentration for a half-maximal effect (EC50) in experiment [5] fell in the range of 1000 to 5000 nM.

As to `CC(C)(C)c1ccc(S(=O)(=O)NNC(=O)NC(C)(C(F)(F)F)C(F)(F)F)cc1` [Example 2], in experiment [5], the EC50 was less than 500 nM.

As to `Cc1ccc(NC(=O)NC(C)(C(F)(F)F)C(F)(F)F)cc1` [Example 90, 1-(4-Methylphenyl)-3-(2,2,2-trifluoro-1-methyl-1-trifluoromethylethyl)-urea], in experiment [5], the half-maximal effective concentration (EC50) is more than 5000 nM.

For `COc1ccc(Cl)cc1S(=O)(=O)NNC(=O)NC(C)(C(F)(F)F)C(F)(F)F` [Example 6, N-2-(1,1,1,3,3,3-Hexafluoro-2-methylpropyl)-2-[(3-chloro-6-methoxyphenyl)sulfonyl]hydrazine-1-carboxamide], the EC50 in experiment [5] is less than 500 nM.

Regarding `Cc1noc(C)c1S(=O)(=O)NNC(=O)NC(C)(C(F)(F)F)C(F)(F)F` [Example 47, N-2-(1,1,1,3,3,3-Hexafluoro-2-methylpropyl)-2-[(3,5-dimethylisoxazol-5-yl)sulfonyl]hydrazine-1-carboxamide], the EC50 in experiment [5] was more than 5000 nM.

As for `CC(NC(=O)Nc1cccc(S(N)(=O)=O)c1)(C(F)(F)F)C(F)(F)F` [Example 79, 3-[3-(1,1-Bis-trifluoromethylethyl)-ureido]benzenesulfonamide], the 50% effective concentration (EC50) in experiment [5] was 1000 to 5000 nM.
